According to paper PMC8537011 (Journal of Fungi, 2021):

Molecular target: T1, PELa (P. expansum Lactonase) (Penicillium expansum, UniProt A0A0A2K035)
T1 construct: gene PEX2_072460
Assay: UV absorbance at […] nm, initial rates, Michaelis-Menten fit
Format: biochemical
Conditions: 100 mM Tris-HCl pH 7.5, NaCl, 100 µM ZnCl2, 25 °C; 0.6 μM enzyme, 0-0.4 mM patulin

T1 sequence (A0A0A2K035 entry or part of it): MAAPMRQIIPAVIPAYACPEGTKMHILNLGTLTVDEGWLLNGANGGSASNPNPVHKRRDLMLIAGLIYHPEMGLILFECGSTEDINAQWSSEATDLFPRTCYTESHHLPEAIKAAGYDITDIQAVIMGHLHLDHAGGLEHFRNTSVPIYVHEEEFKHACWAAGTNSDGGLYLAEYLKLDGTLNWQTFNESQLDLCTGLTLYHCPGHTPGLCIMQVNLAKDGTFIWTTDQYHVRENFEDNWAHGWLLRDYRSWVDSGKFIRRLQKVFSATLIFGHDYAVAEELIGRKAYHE

O=C1C=C2C(=CCOC2O)O1 (stereo not shown) [patulin]
Km: 377 ± 112 µM
